Measurements published in PubChem BioAssay (NCI).
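Exposure lasted 48 hours, with cells grown in 96-well plates and compounds tested at five concentrations. TGI marks complete inhibition of growth.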

Tests used:
Assay in all cases: inhibition of tumour cell growth, NCI panel, 48 h
[1] = system: SNB-75 CNS
[2] = system: SN12C renal
[3] = system: OVCAR-8 ovarian
[4] = system: SW-620 colon
[5] = system: M14 melanoma
[6] = system: SNB-19 CNS
[7] = system: RXF 393 renal
[8] = system: TK-10 renal
[9] = system: HT29 colon
[10] = system: SK-MEL-28 melanoma
[11] = system: CCRF-CEM leukemia
[12] = system: SK-OV-3 ovarian
[13] = system: NCI-H460 lung
[14] = system: HOP-62 NSCLC
[15] = system: SK-MEL-2 melanoma
[16] = system: K-562 leukemia
[17] = system: SF-268 CNS
[18] = system: OVCAR-3 ovarian
[19] = system: HCT-116 colon
[20] = system: MCF7 breast
[21] = system: SF-539 CNS
[22] = system: U251 CNS
[23] = system: RPMI-8226 leukemia
[24] = system: T-47D breast
[25] = system: HOP-92 NSCLC
[26] = system: IGROV1 ovarian
[27] = system: UACC-62 melanoma
[28] = system: HCC-2998 colon
[29] = system: HCT-15 colon
[30] = system: SF-295 CNS
[31] = system: NCI-H226 lung
[32] = system: OVCAR-4 ovarian
[33] = system: MDA-MB-231 breast
[34] = system: BT-549 breast
[35] = system: MDA-MB-435
[36] = system: HS 578T breast
[37] = system: CAKI-1 renal
[38] = system: OVCAR-5 ovarian
[39] = system: MALME-3M melanoma
[40] = system: ACHN renal
[41] = system: SK-MEL-5 melanoma
[42] = system: EKVX NSCLC
[43] = system: COLO 205 colon
[44] = system: UACC-257 melanoma
[45] = system: NCI-H23 lung
[46] = system: NCI/ADR-RES ovarian
[47] = system: PC-3 prostate
[48] = system: UO-31 renal
[49] = system: A549 NSCLC
[50] = system: KM12 colon
[51] = system: LOX IMVI melanoma
[52] = system: NCI-H522 lung
[53] = system: MDA-N
[54] = system: A498 renal
[55] = system: DU-145 prostate
[56] = system: 786-0 renal
[57] = system: MOLT-4 leukemia
[58] = system: HL-60(TB) leukemia
[59] = system: SR leukemia

## CN(C)CCCN1C(=S)N(CCCN(C)C)c2c3ccccc3nc3c([N+](=O)[O-])ccc1c23
[1]
  TGI: 23.1 µM
[2]
  TGI: 18.1 µM
[3]
  TGI: 22.5 µM
[4]
  TGI: 17.4 µM
[5]
  TGI: 26.8 µM
[6]
  TGI: 26 µM
[7]
  TGI: 17.8 µM
[8]
  TGI: 24.2 µM
[9]
  TGI: 12 µM
[10]
  TGI: 29.9 µM
[11]
  TGI: > 100 µM
[12]
  TGI: 50.8 µM
[13]
  TGI: 18 µM
[14]
  TGI: 47 µM
[15]
  TGI: 34.8 µM
[16]
  TGI: > 37.6 µM
[17]
  TGI: 32.5 µM
[18]
  TGI: 24.4 µM
[19]
  TGI: 16 µM
[20]
  TGI: 19.4 µM
[21]
  TGI: 23 µM
[22]
  TGI: 20.7 µM
[23]
  TGI: 50.6 µM
[24]
  TGI: 31.6 µM
[25]
  TGI: 19.5 µM
[26]
  TGI: 16.9 µM
[27]
  TGI: 24.3 µM
[28]
  TGI: 14.5 µM
[29]
  TGI: 21.9 µM
[30]
  TGI: 23.7 µM
[31]
  TGI: 24.1 µM
[32]
  TGI: 27.9 µM
[33]
  TGI: 24 µM
[34]
  TGI: 36.4 µM
[35]
  TGI: 23.7 µM
[36]
  TGI: 41 µM
[37]
  TGI: 19.7 µM
[38]
  TGI: 39.5 µM
[39]
  TGI: 6.69 µM
[40]
  TGI: 16.1 µM
[41]
  TGI: 18.8 µM
[42]
  TGI: 25.1 µM
[43]
  TGI: 4.8 µM
[44]
  TGI: 20.3 µM
[45]
  TGI: 23.7 µM
[46]
  TGI: 27.9 µM
[47]
  TGI: > 42.4 µM
[48]
  TGI: 27.9 µM
[49]
  TGI: > 42.2 µM
[50]
  TGI: 16.1 µM
[51]
  TGI: 17.9 µM
[52]
  TGI: 10.5 µM
[53]
  TGI: 21.4 µM
[54]
  TGI: 22.9 µM
[55]
  TGI: 19.8 µM
[56]
  TGI: 18.2 µM
[57]
  TGI: > 100 µM

## COc1ccc(C2N(c3ccc(F)cc3)C(=O)N3C(c4ccc(OC)cc4)N(c4ccc(F)cc4)C(=O)N23)cc1 (stereo not given)
[1]
  TGI: > 100 µM
[2]
  TGI: > 100 µM
[3]
  TGI: > 100 µM
[4]
  TGI: > 100 µM
[5]
  TGI: > 100 µM
[6]
  TGI: > 100 µM
[7]
  TGI: > 100 µM
[8]
  TGI: > 100 µM
[9]
  TGI: > 100 µM
[10]
  TGI: > 100 µM
[11]
  TGI: > 100 µM
[13]
  TGI: > 100 µM
[14]
  TGI: > 100 µM
[15]
  TGI: > 100 µM
[17]
  TGI: > 100 µM
[18]
  TGI: > 100 µM
[19]
  TGI: > 100 µM
[21]
  TGI: > 100 µM
[22]
  TGI: > 100 µM
[23]
  TGI: > 100 µM
[24]
  TGI: > 100 µM
[25]
  TGI: > 100 µM
[58]
  TGI: > 100 µM
[26]
  TGI: > 100 µM
[27]
  TGI: > 100 µM
[29]
  TGI: > 100 µM
[30]
  TGI: > 100 µM
[32]
  TGI: > 100 µM
[33]
  TGI: > 100 µM
[34]
  TGI: > 100 µM
[35]
  TGI: > 100 µM
[36]
  TGI: > 100 µM
[37]
  TGI: > 100 µM
[38]
  TGI: > 100 µM
[39]
  TGI: > 100 µM
[40]
  TGI: > 100 µM
[41]
  TGI: > 100 µM
[42]
  TGI: > 100 µM
[43]
  TGI: > 100 µM
[44]
  TGI: > 100 µM
[45]
  TGI: > 100 µM
[46]
  TGI: > 100 µM
[47]
  TGI: > 100 µM
[48]
  TGI: > 100 µM
[49]
  TGI: > 100 µM
[50]
  TGI: > 100 µM
[51]
  TGI: > 100 µM
[52]
  TGI: > 100 µM
[53]
  TGI: > 100 µM
[54]
  TGI: > 100 µM
[55]
  TGI: > 100 µM
[56]
  TGI: > 100 µM
[59]
  TGI: > 100 µM
